PubChem BioAssay AID192 (DTP/NCI, 2004)
Values joined by “and” are separate entries in the source; they are usually repeats but may differ in a detail not shown here. Equal values may be shown once. Toxic doses and inconclusive results are not listed. Rule for the calls: active = survival T/C of 150% or more; inactive = T/C below 125% in these data.

System: BDF1 mice, B16 melanoma ip, median survival T/C
Test: NCI In Vivo Anticancer Drug Screen. Data for tumor model B16 Melanoma (intraperitoneal) in B6D2F1 (BDF1) mice
Settings: endpoint: median survival time, schedule: Q01DX009 (ip), higher = longer survival
Procedure, shortened: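 The ratio T/C compares compound-treated mice with vehicle-treated controls, using survival or tumor size as the endpoint in a transplantable tumor model.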

[1] = dose: 5.0 mg/kg/injection, vehicle: saline
[2] = dose: 12.5 mg/kg/injection, vehicle: saline
[3] = dose: 25.0 mg/kg/injection, vehicle: saline
[4] = dose: 50.0 mg/kg/injection, vehicle: saline
[5] = dose: 100.0 mg/kg/injection, vehicle: saline with Tween-80
[6] = dose: 200.0 mg/kg/injection, vehicle: saline with Tween-80
[7] = dose: 50.0 mg/kg/injection, vehicle: saline with Tween-80
[8] = dose: 0.78 mg/kg/injection, vehicle: Klucel (hydroxypropylcellulose) (HPC)
[9] = dose: 1.56 mg/kg/injection, vehicle: Klucel (hydroxypropylcellulose) (HPC)
[10] = dose: 50.0 mg/kg/injection, vehicle: Klucel (hydroxypropylcellulose) (HPC)
[11] = dose: 100.0 mg/kg/injection, vehicle: Klucel (hydroxypropylcellulose) (HPC)
[12] = dose: 200.0 mg/kg/injection, vehicle: Klucel (hydroxypropylcellulose) (HPC)

Measured: T/C

CC1C(=O)OCC2=CCN3CCC(OC(=O)C(C)C1(C)O)C23 (configuration not stated)
inactive: [1] 109 % of control | dose: 10.0 mg/kg/injection, vehicle: saline 111 % of control | [2] 123 % of control | dose: 20.0 mg/kg/injection, vehicle: saline 111 % of control | [3] 121 % of control | dose: 40.0 mg/kg/injection, vehicle: saline 109 % of control | [4] 121 % of control

CC(N)C(O)c1cccc(O)c1 (configuration not stated)
inactive: dose: 6.25 mg/kg/injection, vehicle: saline 94 % of control | [2] 102 % of control | [3] 105 % of control | [4] 100 % of control

CC(C)(C)CC(C)(C)c1ccc(O)c(O)c1
inactive: dose: 6.25 mg/kg/injection, vehicle: saline with Tween-80 98 % of control | dose: 12.5 mg/kg/injection, vehicle: saline with Tween-80 90 % of control | dose: 25.0 mg/kg/injection, vehicle: saline with Tween-80 88 % of control and 93 % of control

O=CNNC=O
inactive: [5] 86 % of control | [6] 95 % of control | dose: 400.0 mg/kg/injection, vehicle: saline with Tween-80 90 % of control

O=C1NC(=O)C(Cc2ccccc2)(c2ccccc2)N1 (configuration not stated)
inactive: [7] 105 % of control | [5] 102 % of control

O=NN(CCCl)C(=O)NC1[C@H](O)CCC[C@@H]1O (some centres not stated)
active: dose: 0.63 mg/kg/injection, vehicle: saline 159 % of control | dose: 1.25 mg/kg/injection, vehicle: saline 208 % of control | dose: 2.5 mg/kg/injection, vehicle: saline 295 % of control | [1] 295 % of control

c1ccc(CC[P+](c2ccccc2)(c2ccccc2)c2ccccc2)cc1
inactive: [8] 92 % of control | [9] 103 % of control | dose: 3.13 mg/kg/injection, vehicle: Klucel (hydroxypropylcellulose) (HPC) 92 % of control

Cc1cc2c(cc1C)NC(C)CC(=O)N2 (configuration not stated)
inactive: [10] 106 % of control | [11] 108 % of control | [12] 106 % of control

CCOC(=O)C(C)(C)Oc1ccc(Cl)cc1
inactive: [7] 97 % of control and 113 % of control | [5] 88 % of control and 113 % of control | [6] 102 % of control

Nc1ccc2cc(S(=O)(=O)O)cc(O)c2c1N=Nc1ccc(F)cc1
inactive: dose: 100.0 mg/kg/injection, vehicle: saline 87 % of control

O=[N+]([O-])c1ccc(/C=N\Nc2ccc([N+](=O)[O-])cn2)cc1
inactive: [8] 106 % of control | [9] 97 % of control | dose: 3.12 mg/kg/injection, vehicle: Klucel (hydroxypropylcellulose) (HPC) 86 % of control | dose: 6.25 mg/kg/injection, vehicle: Klucel (hydroxypropylcellulose) (HPC) 97 % of control | dose: 12.5 mg/kg/injection, vehicle: Klucel (hydroxypropylcellulose) (HPC) 86 % of control

C=C(C)C(=O)OC1C/C(CO)=C\C(O)C/C(C)=C/C2OC(=O)C(=C)C21 (configuration not stated)
inactive: dose: 1.25 mg/kg/injection, vehicle: saline + alcohol 110 % of control | dose: 2.5 mg/kg/injection, vehicle: saline + alcohol 90 % of control | dose: 5.0 mg/kg/injection, vehicle: saline + alcohol 92 % of control | dose: 10.0 mg/kg/injection, vehicle: saline + alcohol 100 % of control | dose: 20.0 mg/kg/injection, vehicle: saline + alcohol 91 % of control | dose: 40.0 mg/kg/injection, vehicle: saline + alcohol 95 % of control

CC(=O)NS(=O)(=O)c1ccc(NC(=O)c2ccccc2C(=O)O)cc1
inactive: [10] 98 % of control | [11] 96 % of control | [12] 93 % of control
